Consider 7 compounds from ChEMBL document CHEMBL1795241 (Bioorg Med Chem, 2011).

One test has as its system LNCaP. The test is described as follows: cells. The note with it: Homo sapiens, 144 h.
Test [1] deals with Lysine-specific histone demethylase 1A (Homo sapiens, UniProt O60341).
Description: Inhibition of human recombinant His-tagged full length LSD1 expressed in Escherichia coli BL21 (DE3) assessed as inactivation constant preincubated for 20 mins with substrate measured after 30 mins by AmplexRed based fluorescence quenching assay

Where only a bound is given, the exact number is not on record here.

Description for LNCaP: Growth inhibition of human LNCAP cells after 6 days

The compound `N[C@@H]1C[C@H]1c1ccc(-c2ccccc2)cc1` registered an IC50 with LNCaP of 110 µM. Consider `N[C@@H]1C[C@H]1c1cccc(-c2ccccc2)c1`, for which the midpoint of inhibition in the test on LNCaP, the IC50, lay at 226 µM. In test [1], the Ki was greater than 100 µM. `N[C@@H]1C[C@H]1c1ccccc1Br` had an IC50 in the test on LNCaP of 5870 µM. This counts as millimolar. As for `N[C@@H]1C[C@H]1c1ccccc1-c1ccccc1`, in the test on LNCaP, the IC50 worked out at 181 µM. In test [1], this compound gave a Ki greater than 100 µM. Turning to `COc1ccc([C@@H]2C[C@H]2N)cc1`, in the test with LNCaP, the IC50 was 1710 µM. This counts as millimolar.

As for `N[C@@H]1C[C@H]1c1ccc(Br)cc1`, in the test with LNCaP, half-maximal inhibition (IC50) required 111 µM. With `N[C@@H]1C[C@H]1c1cccc(Br)c1`, the IC50 in the test on LNCaP came out at 129 µM.

By IC50 is commonly meant the concentration needed to halve the response being measured. The low end stands for greater potency, the high end for weaker potency. One may read the Ki as the dissociation constant of the complex between target and ligand, obtained from inhibition or displacement. High values mean weaker binding, low ones tighter binding.
